Source: patent publication US20130059840A1, “SULFONAMIDO PYRROLIDINE COMPOUNDS WHICH INHIBIT BETA-SECRETASE ACTIVITY AND METHODS OF USE THEREOF” (CoMentis, Inc., priority 2009, published 2013)

Experiments:
[1] = target: T1, memapsin 2 (Cricetulus griseus, UniProt G3IAK4); experiment: Cellular Aβ IC50 determination (Aβ40 sandwich ELISA); type: cell-based; settings: Chinese hamster ovary cells over-expressing human APP695 (London and Swedish mutations), Aβ40, 24 h; read-out: M2 IC50
T1 construct: endogenous in cells; host or cells: Chinese hamster ovary cells over-expressing human APP695 (London + Swedish)
Experimental: The potency of compounds against memapsin 2 activity was determined in a cellular assay of Aβ production. […] Chinese hamster ovary cells that over-express human APP695 with the London and Swedish mutations were seeded in multi-well plates at 10% confluency. Compounds are dissolved in DMSO to concentrations near 1 mM, and diluted into culture media to a final concentration near 4 μM (final 0.4% DMSO). Compounds were diluted serially and applied to cells in multi-well plates 48 h after seeding. Incubation was continued in 5% CO2 at 37° C. for 24 h. Aliquots were removed and assayed for Aβ40 content using a sandwich ELISA (BioSource International). Amount of Aβ40 over the range of concentration of compounds, relative to control incubations, were fit to a 4-parameter IC50 model.

[2] = target: T2, CYP3A4 (Homo sapiens, UniProt P08684); experiment: Determination of CYP3A4 inhibition (midazolam metabolism); type: in vitro ADME; settings: human liver microsomes, midazolam substrate
T2 construct: with human liver microsomes (HLM) at a final protein concentration of 0.1 mg/mL protein; from tissue; host or cells: human liver microsomes
Experimental: To evaluate the drug-drug interaction potential for compounds, the potency to inhibit the major metabolic cytochrome CYP450 isoform 3A4 was assessed. The inhibition constant Ki was determined for inhibition of the metabolism of midazolam, a CYP3A4 substrate.
CYP3A4 Ki assays were performed following a recently published protocol with slight modifications (Di, L., Kerns, E. H., Li, S. Q., and Carter, G. T. (2007) Comparison of cytochrome P450 inhibition assays for drug discovery using human liver microsomes with LC-MS, rhCYP450 isozymes with fluorescence, and double cocktail with LC-MS. International Journal of Pharmaceutics 335: 1-11). The P450 inhibition assay was performed in 96-well plates at 37.2° C. in a shaking incubator. […]
After incubation for the specified time in a humidified shaking incubator, 20 μL of the reaction mixture was removed and the reactions were terminated by adding […] of cold acetonitrile. […] Formation of 1′-hydroxymidazolam was measured by monitoring a specific SRM (342>203) transition for the CYP3A4 metabolite.
Data were expressed as the relative quantity of midazolam metabolite relative to control incubations. Initial velocities were obtained by multiplying the relative quantity by the initial substrate concentration and dividing by the incubation duration. […]

[3] = Hepatic intrinsic clearance in liver microsomes; type: in vitro ADME; settings: pH 7.4; human liver microsomes, LC/MS/MS; read-out: HLM CL
Experimental: To 500 μl of 200 mM Na^+ K^+ phosphate buffer (pH 7.4), 100 μl of 1 mM EDTA solution was added followed by 100 μl of 2 mg protein/ml human liver microsomes. A 10 μl aliquot of test compound (20 mM stock in 50% acetonitrile) was diluted further with 40 μl of H2O (total assay volume 750 μl. Assay mixture is incubated for 5 minutes at 37° C. The assay was initiated by addition of 250 μl of 4 mM NADPH solution. Incubation was continued at 37° C. Separate reaction mixtures were prepared for 0, 5, 10, 20, and 30 min durations. Individual reactions were halted by addition of 150 μl of 100% acetonitrile. Internal standard (10 μl of 100 ng/ml diazepam solution) was added. Concentration of the test compound in each separate reaction was measured using LC/MS/MS and a standard curve for the test compound according to standard procedures.
The hepatic intrinsic clearance in liver microsome was determined by the following procedure described by Davies and Morris (Davies, B. and Morris, T. (19930) Physiological parameters in laboratory animals and humans. Pharm Res. 10:1093-1095) detailing the relationship of in vitro clearance to physiological parameters in animals and human subjects.
The amount of compound remaining at each time point was expressed relative to the amount present in the initial (0 min) incubation. The relationship of relative amount vs. time was used to determine the half life of the compound in the microsome assay. The concentration independent rate constant, k1, was determined from rectangular hyperbolic fit:
% remaining=100*(e^−k^1^T)
where T is time (in minutes), from the relationship of relative amount vs. time. Alternatively, k1 was determined from a transform of the equation, where
Conversion to in vivo clearance was obtained from the relation (Davies and Morris, 1993):
where v=velocity of metabolism, [S] is the concentration of the compound, and volumes are expressed in mL.

[4] = target: memapsin 2 (Homo sapiens, UniProt P56817); experiment: Inhibition of memapsin 2 beta-secretase activity (fluorogenic substrate FS-2); type: biochemical; settings: pH 4, 37° C., read-out: M2 Ki
Experimental: Potency of compounds were determined by measurement of their inhibition of memapsin 2 activity toward a fluorescent substrate. Kinetic inhibition experiments were performed using the procedure as described in Ermolieff, et al. (Biochemistry 39:12450-12456 (2000), the teachings of which are incorporated hereby in their entirety). Briefly, assays were performed at pH 4, 37° C., by pre-incubation of memapsin 2 enzyme with compound for 20 minutes. Activity measurements were initiated by addition of a fluorogenic substrate FS-2 (Bachem Americas, Torrance, Calif.) MCA-SEVNLDAEFR-DNP (SEQ ID NO.: 2). The substrate was derived from 10 amino acids of the human amyloid precursor protein (APP), with the Swedish variant amino acids at the beta-secretase cleavage site. The terminal amino acid was modified from arginine to lysine to facilitate derivatization with a functional group for detection by autofluorescence. The amino acid sequence of the “core” peptide of the substrate is SEVNLDAEFK (SEQ ID NO.: 3). The amino terminus was derivatized with (7-methoxycoumarin-4-yl)acetyl (MCA), and the epsilon amine of the lysine side chain of the terminal residue (K in sequence SEVNLDAEFK (SEQ ID NO.: 3)) was derivatized with 2,4-dinitrophenyl (DNP).

[5] = target: Cathepsin D (UniProt P07339); experiment: Inhibition of cathepsin D activity (MALDI-TOF, substrate peptide); type: biochemical; settings: substrate peptide NH3-ELDLAVEFWHDR-CO2, pH 4.1, 37 degrees C.; read-out: CD Ki

T1 sequence (G3IAK4 22-501): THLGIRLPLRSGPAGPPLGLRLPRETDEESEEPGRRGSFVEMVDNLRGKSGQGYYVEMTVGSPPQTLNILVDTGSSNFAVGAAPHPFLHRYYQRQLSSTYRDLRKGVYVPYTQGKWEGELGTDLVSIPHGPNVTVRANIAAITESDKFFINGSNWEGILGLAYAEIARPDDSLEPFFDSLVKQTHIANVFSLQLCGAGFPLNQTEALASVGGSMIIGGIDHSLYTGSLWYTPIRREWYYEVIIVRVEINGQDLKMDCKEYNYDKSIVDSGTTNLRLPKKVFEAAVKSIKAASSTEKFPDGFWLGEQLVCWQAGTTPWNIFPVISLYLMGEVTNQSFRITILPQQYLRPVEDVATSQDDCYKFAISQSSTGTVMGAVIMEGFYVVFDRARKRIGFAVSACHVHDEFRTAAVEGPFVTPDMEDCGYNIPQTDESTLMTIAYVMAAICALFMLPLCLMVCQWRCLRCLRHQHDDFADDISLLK
Chain of memapsin 2 (Homo sapiens, UniProt P56817) (P56817 46-501): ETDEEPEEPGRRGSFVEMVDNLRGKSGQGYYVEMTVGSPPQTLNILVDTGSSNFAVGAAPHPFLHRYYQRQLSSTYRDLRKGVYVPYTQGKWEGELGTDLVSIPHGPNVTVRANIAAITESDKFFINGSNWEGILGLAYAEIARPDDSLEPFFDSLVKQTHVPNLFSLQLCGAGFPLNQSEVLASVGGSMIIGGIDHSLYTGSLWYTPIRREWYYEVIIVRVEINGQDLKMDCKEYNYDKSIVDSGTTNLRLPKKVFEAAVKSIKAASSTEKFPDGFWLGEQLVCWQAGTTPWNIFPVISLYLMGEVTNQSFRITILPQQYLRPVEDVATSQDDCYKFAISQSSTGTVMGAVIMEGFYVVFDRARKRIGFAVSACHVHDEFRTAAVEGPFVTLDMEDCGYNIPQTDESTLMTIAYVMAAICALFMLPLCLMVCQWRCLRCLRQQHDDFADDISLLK
T2 sequence (P08684 whole entry): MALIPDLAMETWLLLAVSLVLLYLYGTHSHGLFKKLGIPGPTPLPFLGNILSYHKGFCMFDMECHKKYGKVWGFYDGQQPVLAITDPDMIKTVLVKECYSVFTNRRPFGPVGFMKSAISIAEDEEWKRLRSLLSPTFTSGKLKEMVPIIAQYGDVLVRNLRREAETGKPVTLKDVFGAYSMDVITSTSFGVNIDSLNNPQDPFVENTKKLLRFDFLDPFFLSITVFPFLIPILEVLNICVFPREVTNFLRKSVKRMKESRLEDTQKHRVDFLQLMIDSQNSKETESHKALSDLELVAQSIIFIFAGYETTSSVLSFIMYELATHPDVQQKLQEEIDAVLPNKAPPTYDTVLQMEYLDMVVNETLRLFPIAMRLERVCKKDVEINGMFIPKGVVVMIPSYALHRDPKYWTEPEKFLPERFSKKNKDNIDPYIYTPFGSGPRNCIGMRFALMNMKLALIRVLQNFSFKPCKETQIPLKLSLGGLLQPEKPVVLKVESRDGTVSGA

SMILES | IC50 [1] | Ki [2] | CLint scaled at 200 μM [3] | Ki [4] | Ki [5]
Cc1csc([C@H]2CCCN2C(=O)c2cc(C(=O)N[C@@H](Cc3ccccc3)[C@H](O)[C@H]3CCCN3)cc(N3CCCCS3(=O)=O)c2)n1 [1-78, N-((1R,2S)-1-hydroxy-3-phenyl-1-((R)-pyrrolidin-2-yl)propan-2-yl)-3-((R)-2-(4-methylthiazol-2-yl)pyrrolidine-1-carbonyl)-5-(thiazinanyl-S,S-dioxide)benzamide] | < 0.5 µM | > 10 µM | < 400 mL/min/kg | – | –
Cc1csc([C@H]2CCCN2C(=O)c2cc(C(=O)N[C@@H](Cc3cc(F)cc(F)c3)[C@H](O)[C@H]3CCCN3)cc(N3CCCCS3(=O)=O)c2)n1 [1-87, N-((1R,2S)-1-hydroxy-3-(3,5-difluorophenyl)-1-((R)-pyrrolidin-2-yl)propan-2-yl)-3-((R)-2-(4-methylthiazol-2-yl)pyrrolidine-1-carbonyl)-5-(thiazinanyl-S,S-dioxide)benzamide] | < 0.5 µM | > 10 µM | < 400 mL/min/kg | < 0.25 µM | > 0.5 µM
Cc1csc([C@H]2CCCN2C(=O)c2cc(C(=O)N[C@@H](Cc3ccccc3)[C@H](O)[C@H]3CCCN3)cc(N3CCCS3(=O)=O)c2)n1 [1-89, N-((1R,2S)-1-hydroxy-3-phenyl-1-((R)-pyrrolidin-2-yl)propan-2-yl)-3-((R)-2-(4-methylthiazol-2-yl)pyrrolidine-1-carbonyl)-5-([1,2]thiazolidyl-S,S-dioxide)benzamide] | < 0.5 µM | – | < 400 mL/min/kg | < 0.25 µM | > 0.5 µM
Cc1csc([C@H]2CCCN2C(=O)c2cc(C(=O)N[C@@H](Cc3cc(F)cc(F)c3)[C@H](O)[C@H]3CCCN3)cc(N3CCCS3(=O)=O)c2)n1 [1-90, N-((1R,2S)-1-hydroxy-3-(3,5-difluorophenyl)-1-((R)-pyrrolidin-2-yl)propan-2-yl)-3-((R)-2-(4-methylthiazol-2-yl)pyrrolidine-1-carbonyl)-5-([1,2]thiazolidyl-S,S-dioxide)benzamide] | < 0.5 µM | – | < 400 mL/min/kg | < 0.25 µM | > 0.5 µM
Cc1csc([C@H]2CCCN2C(=O)c2cc(C(=O)N[C@@H](Cc3cccc(F)c3)[C@H](O)[C@H]3CCCN3)cc(N3CCCS3(=O)=O)c2)n1 [1-91, N-((1R,2S)-1-hydroxy-3-(5-fluorophenyl)-1-((R)-pyrrolidin-2-yl)propan-2-yl)-3-((R)-2-(4-methylthiazol-2-yl)pyrrolidine-1-carbonyl)-5-([1,2]thiazolidyl-S,S-dioxide)benzamide] | 0.5 to 1 µM | – | < 400 mL/min/kg | < 0.25 µM | > 0.5 µM
